This note sets out measurements from patent US20150105252A1, “SUBSTITUTED PYRAZOLES AS HERBICIDES” (E I DU PONT DE NEMOURS AND COMPANY, priority 2013, published 2015).

Assay [1] relates to pigweed. The experiment in a line: Test A postemergence. In kind it is in vivo, Amaranthus retroflexus. To be noted: Postemergence, 1000 g ai/ha; visual rating after approx. 10 days, 0 to 100 scale (0 no effect, 100 complete control). Put shortly:
(§1)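 Greenhouse test in loam soil/sand blend; compounds formulated in non-phytotoxic solvent with surfactant, applied as preemergence directed soil spray or postemergence to plants 2–10 cm tall at one- to two-leaf stage. Injury rated visually versus untreated controls after approximately 10 days on a 0 (no effect) to 100 (complete control) scale.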

Assay [2] has as its system pigweed. The experiment in a line: Test A preemergence. The assay is classed as in vivo, Amaranthus retroflexus. To be noted: Preemergence, 1000 g ai/ha; 0 to 100 scale, 0 no effect, 100 complete control. Put shortly: as §1
Assay [3] has as its system wheat. Nature of the assay: Test A postemergence. The assay is classed as in vivo, Triticum aestivum. To be noted: Postemergence, 1000 g ai/ha; visual rating after approx. 10 days, 0 to 100 scale (0 no effect, 100 complete control). An outline of the steps:
as §1

In assay [4] the test system is barnyardgrass. Nature of the assay: Test A preemergence. To be noted: Preemergence, 1000 g ai/ha; 0 to 100 scale, 0 no effect, 100 complete control. In kind it is in vivo, Echinochloa crus-galli. An outline of the steps: as §1
In assay [5] the test system is corn. Nature of the assay: Test A preemergence. The assay is classed as in vivo, Zea mays. To be noted: Preemergence, 1000 g ai/ha; 0 to 100 scale, 0 no effect, 100 complete control. An outline of the steps: as §1
For assay [6], the system named is morningglory. The experiment in a line: Test A preemergence. To be noted: Preemergence, 1000 g ai/ha; 0 to 100 scale, 0 no effect, 100 complete control. The assay is classed as in vivo, Ipomoea spp. Put shortly:
as §1

Assay [7] relates to velvetleaf. Nature of the assay: Test A preemergence. In kind it is in vivo, Abutilon theophrasti. To be noted: Preemergence, 1000 g ai/ha; 0 to 100 scale, 0 no effect, 100 complete control. An outline of the steps:
as §1

Assay [8] relates to velvetleaf. The experiment in a line: Test A postemergence. The assay is classed as in vivo, Abutilon theophrasti. To be noted: Postemergence, 1000 g ai/ha; visual rating after approx. 10 days, 0 to 100 scale (0 no effect, 100 complete control). An outline of the steps: as §1
For assay [9], the system named is corn. Nature of the assay: Test A postemergence. To be noted: Postemergence, 1000 g ai/ha; visual rating after approx. 10 days, 0 to 100 scale (0 no effect, 100 complete control). The assay is classed as in vivo, Zea mays. Put shortly: as §1
Assay [10] deals with wheat. The experiment in a line: Test A preemergence. In kind it is in vivo, Triticum aestivum. Put shortly: as §1
The subject of assay [11] is crabgrass, large. The experiment in a line: Test A preemergence. In kind it is in vivo, Digitaria sanguinalis. To be noted: Preemergence, 1000 g ai/ha; 0 to 100 scale, 0 no effect, 100 complete control. Put shortly:
as §1

Assay [12] deals with foxtail, giant. Nature of the assay: Test A preemergence. In kind it is in vivo, Setaria faberii. To be noted: Preemergence, 1000 g ai/ha; 0 to 100 scale, 0 no effect, 100 complete control. Put shortly: as §1
Assay [13] has as its system barnyardgrass. The experiment in a line: Test A postemergence. The assay is classed as in vivo, Echinochloa crus-galli. To be noted: Postemergence, 1000 g ai/ha; visual rating after approx. 10 days, 0 to 100 scale (0 no effect, 100 complete control). An outline of the steps: as §1
Assay [14] deals with foxtail, giant. The experiment in a line: Test A postemergence. The assay is classed as in vivo, Setaria faberii. To be noted: Postemergence, 1000 g ai/ha; visual rating after approx. 10 days, 0 to 100 scale (0 no effect, 100 complete control). An outline of the steps:
as §1

The test system of assay [15] is morningglory. The experiment in a line: Test A postemergence. The assay is classed as in vivo, Ipomoea spp. To be noted: Postemergence, 1000 g ai/ha; visual rating after approx. 10 days, 0 to 100 scale (0 no effect, 100 complete control). An outline of the steps: as §1
Assay [16] relates to crabgrass, large. The experiment in a line: Test A postemergence. To be noted: Postemergence, 1000 g ai/ha; visual rating after approx. 10 days, 0 to 100 scale (0 no effect, 100 complete control). In kind it is in vivo, Digitaria sanguinalis. Put shortly: as §1
[17] abbreviates: Preemergence, 1000 g ai/ha, 0 to 100 scale, 0 no effect, 100 complete control.
Where [18] appears, read: preemergence, 500 g ai/ha, visual injury after approx. 10 days, 0 to 100 scale (0 no effect, 100 complete control).

Regarding `CCc1cc(C(=O)NCCOC)nn1Cc1cccc(OC(F)(F)F)c1` [Compound 57], the entries for the “Pigweed plant response rating” value with pigweed [1] and with pigweed [2] were 50 and 10, respectively. The “Wheat plant response rating” value with wheat [3], in the assay on wheat [10] (setting [17]) and in the assay on wheat [10] (setting [18]) was 0 throughout. Besides, the “Barnyardgrass plant response rating” value in the assay with barnyardgrass [4] and with barnyardgrass [13] was 10 throughout. In addition, the figures for the “Corn plant response rating” value in the assay with corn [5] and in the assay on corn [9] were 0 and 40, respectively. Also, the “Morningglory plant response rating” value in the assay with morningglory [6] worked out at 10; with morningglory [15], 60. The “Velvetleaf plant response rating” value is reported as 0 in the assay on velvetleaf [7] and 30 in the assay with velvetleaf [8]. In addition, the “Crabgrass, Large plant response rating” value with crabgrass, large [11] is given as 20; in the assay with crabgrass, large [16], 10. The “Foxtail, Giant plant response rating” value with foxtail, giant [12] is listed as 90; with foxtail, giant [14] it was 10.

Take `CCCCNC(=O)c1cc(CC)n(Cc2cccc(OC(F)(F)F)c2)n1` [Compound 62]: the “Pigweed plant response rating” value with pigweed [1] came out at 70; with pigweed [2], 20. Further, the “Wheat plant response rating” value with wheat [3] worked out at 20; with wheat [10] (setting [17]), 0; with wheat [10] (setting [18]) it was 0. Further, the “Barnyardgrass plant response rating” value with barnyardgrass [4] and with barnyardgrass [13] was 10 in each case. Besides, the “Corn plant response rating” value with corn [5] stood at 0; in the assay with corn [9] it was 50. The “Morningglory plant response rating” value in the assay on morningglory [6] is recorded as 20; in the assay on morningglory [15] it was 80. Also, the “Velvetleaf plant response rating” value in the assay on velvetleaf [7] amounted to 10; in the assay on velvetleaf [8], 70. Further, the “Crabgrass, Large plant response rating” value amounted to 40 with crabgrass, large [11] and 20 in the assay with crabgrass, large [16]. The “Foxtail, Giant plant response rating” value turned out to be 60 in the assay with foxtail, giant [12] and 30 in the assay with foxtail, giant [14].

`CCCCN(C)C(=O)c1cc(CC)n(Cc2cccc(OC(F)(F)F)c2)n1` [Compound 63]: the entries for the “Pigweed plant response rating” value with pigweed [1] and in the assay on pigweed [2] were 70 and 0, respectively. The “Wheat plant response rating” value in the assay on wheat [3] was determined as 10; with wheat [10] (setting [17]), 0; in the assay with wheat [10] (setting [18]), 0. Besides, the “Barnyardgrass plant response rating” value in the assay on barnyardgrass [4] and with barnyardgrass [13] was 0 in each case. Besides, the “Corn plant response rating” value in the assay with corn [5] is on record as 0; in the assay on corn [9], 20. For the same compound, the “Morningglory plant response rating” value in the assay with morningglory [6] was found to be 0; in the assay with morningglory [15], 60. Besides, the “Velvetleaf plant response rating” value in the assay on velvetleaf [7] worked out at 0; in the assay with velvetleaf [8], 30. The “Crabgrass, Large plant response rating” value worked out at 0 in the assay on crabgrass, large [11] and 10 in the assay on crabgrass, large [16]. The “Foxtail, Giant plant response rating” value was 0 in the assay with foxtail, giant [12] and 20 in the assay on foxtail, giant [14].

Consider `CCc1cc(C(=O)NC)nn1Cc1cccc(OC(F)(F)F)c1` [Compound 65], for which the “Pigweed plant response rating” value with pigweed [1] came out at 70; in the assay on pigweed [2] it was 90. Also, the “Wheat plant response rating” value in the assay with wheat [3] stood at 20; in the assay on wheat [10] (setting [17]) it was 0; with wheat [10] (setting [18]), 0. Moreover, the “Barnyardgrass plant response rating” value with barnyardgrass [4] came to 60; in the assay on barnyardgrass [13] it was 50. For the same compound, the “Corn plant response rating” value turned out to be 0 with corn [5] and 30 in the assay with corn [9]. The results for the “Morningglory plant response rating” value in the assay on morningglory [6] and in the assay on morningglory [15] were 70 and 90, respectively. Also, the “Velvetleaf plant response rating” value with velvetleaf [7] is 20; with velvetleaf [8], 30. The “Crabgrass, Large plant response rating” value with crabgrass, large [11] was found to be 80; in the assay on crabgrass, large [16], 50. Further, the “Foxtail, Giant plant response rating” value in the assay with foxtail, giant [12] is 70; in the assay with foxtail, giant [14], 50.

`CCc1cc(C(=O)N(C)OC)nn1Cc1cccc(OC(F)(F)F)c1` [Compound 67]: the “Pigweed plant response rating” value with pigweed [1] is listed as 40; with pigweed [2], 0. The “Wheat plant response rating” value in the assay on wheat [3] is on record as 20; in the assay with wheat [10] (setting [17]), 0; in the assay with wheat [10] (setting [18]), 0. For the same compound, the “Barnyardgrass plant response rating” value in the assay on barnyardgrass [4] came out at 0; in the assay with barnyardgrass [13], 20. Further, the results for the “Corn plant response rating” value with corn [5] and in the assay with corn [9] were 0 and 30, respectively. The entries for the “Morningglory plant response rating” value in the assay with morningglory [6] and in the assay on morningglory [15] were 0 and 40, respectively. For the same compound, the “Velvetleaf plant response rating” value is 10 in the assay with velvetleaf [7] and 30 with velvetleaf [8]. Moreover, the “Crabgrass, Large plant response rating” value amounted to 50 in the assay on crabgrass, large [11] and 30 in the assay with crabgrass, large [16]. Also, the “Foxtail, Giant plant response rating” value with foxtail, giant [12] is on record as 90; with foxtail, giant [14] it was 40.

With `CCc1cc(C(=O)N(C)CC)nn1Cc1cccc(OC(F)(F)F)c1` [Compound 68], the “Pigweed plant response rating” value turned out to be 60 in the assay with pigweed [1] and 70 in the assay on pigweed [2]. Moreover, the results for the “Wheat plant response rating” value with wheat [3], in the assay on wheat [10] (setting [17]) and in the assay on wheat [10] (setting [18]) were 20, 0 and 0, respectively. Further, the “Barnyardgrass plant response rating” value with barnyardgrass [4] is on record as 0; in the assay on barnyardgrass [13], 30. Moreover, the “Corn plant response rating” value with corn [5] came to 0; in the assay with corn [9] it was 30. Moreover, the “Morningglory plant response rating” value in the assay on morningglory [6] was 0; in the assay with morningglory [15], 100. In addition, the “Velvetleaf plant response rating” value in the assay with velvetleaf [7] came to 0; with velvetleaf [8], 40. The “Crabgrass, Large plant response rating” value with crabgrass, large [11] stood at 40; in the assay with crabgrass, large [16], 30. For the same compound, the “Foxtail, Giant plant response rating” value in the assay with foxtail, giant [12] is 60; with foxtail, giant [14], 20.
